Source: ChEMBL document CHEMBL1201862, “PubChem BioAssay data set” (2004)
Activity calls are given as the source filed them.

What was measured:
[1] = target: Melanin-concentrating hormone receptor 1 (Homo sapiens, UniProt Q99705); test: Late-stage fluorescence-based counterscreen for antagonists of the G-protein coupled receptor 7 (GPR7): cell-based dose response assay to identify antagonists of the melanin-concentrating hormone receptor 1 (MCHR1). [Related pubchem assays (depositor defined):AID1861, AID1880, AID1952, AID2148, AID2251, AID2257, AID485339]; format: functional;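 further: stimulated with 30 nM MCH peptide agonist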
[2] = target: Dual specificity protein phosphatase 3 (Homo sapiens, UniProt P51452); test: VHR1 inhibitor Ki determination, SAR follow-up, biochemical, colorimetric (AID 2004)
Cytochrome P450 2C9 = Cytochrome P450 2C9 (Homo sapiens, UniProt P11712); details: Potency
[3] = HIV-1 Env-mediated cell fusion inhibitors, dose response, CCR5-tropic Env (AID 2279); format: functional
[4] = target: T1, Neuropeptide Y receptor type 2 (Homo sapiens, UniProt P49146); format: functional, cell-based;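 further: HEK293 cells expressing the receptor and a CNG channel; stimulus was NPY near EC95 followed by isoproterenol to raise cAMP; antagonist potency measured as restoring cAMP signal that NPY suppresses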
T1 sequence (P49146 whole entry): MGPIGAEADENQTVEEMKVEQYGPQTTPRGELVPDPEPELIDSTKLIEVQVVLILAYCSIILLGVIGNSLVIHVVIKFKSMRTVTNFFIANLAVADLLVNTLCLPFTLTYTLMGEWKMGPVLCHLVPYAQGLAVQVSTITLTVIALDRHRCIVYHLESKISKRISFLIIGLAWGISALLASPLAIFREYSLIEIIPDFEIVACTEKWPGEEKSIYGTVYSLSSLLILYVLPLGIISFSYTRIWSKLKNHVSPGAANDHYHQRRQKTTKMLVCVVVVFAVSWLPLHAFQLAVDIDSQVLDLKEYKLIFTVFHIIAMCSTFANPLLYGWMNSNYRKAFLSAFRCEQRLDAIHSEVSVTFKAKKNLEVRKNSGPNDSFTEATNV

[5] = target: T2, Neuropeptide Y receptor type 1 (Homo sapiens, UniProt P25929); format: functional;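 further: HEK293 cells with a CNG channel challenged with NPY then isoproterenol; potency as antagonist that reverses NPY suppression of cAMP signal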
T2 sequence (P25929 whole entry): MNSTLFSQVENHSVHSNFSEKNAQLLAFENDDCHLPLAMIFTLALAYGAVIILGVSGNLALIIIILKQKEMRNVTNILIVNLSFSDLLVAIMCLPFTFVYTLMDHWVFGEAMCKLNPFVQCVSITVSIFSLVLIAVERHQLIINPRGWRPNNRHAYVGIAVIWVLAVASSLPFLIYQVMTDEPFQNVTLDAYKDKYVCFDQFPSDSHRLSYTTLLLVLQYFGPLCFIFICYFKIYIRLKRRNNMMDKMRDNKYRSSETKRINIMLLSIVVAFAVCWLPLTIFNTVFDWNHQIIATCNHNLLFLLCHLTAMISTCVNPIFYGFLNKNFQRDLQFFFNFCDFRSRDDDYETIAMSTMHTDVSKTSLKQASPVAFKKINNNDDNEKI

[6] = target: Heat shock 70 kDa protein 1A (Homo sapiens, UniProt P0DMV8); test: Hsp70 inhibitors, SAR follow-up, biochemical, fluorescence polarization (AID 1072)
[7] = target: T3, Dual specificity protein phosphatase 6 (Rattus norvegicus, UniProt Q64346); format: functional
T3 sequence (Q64346 whole entry): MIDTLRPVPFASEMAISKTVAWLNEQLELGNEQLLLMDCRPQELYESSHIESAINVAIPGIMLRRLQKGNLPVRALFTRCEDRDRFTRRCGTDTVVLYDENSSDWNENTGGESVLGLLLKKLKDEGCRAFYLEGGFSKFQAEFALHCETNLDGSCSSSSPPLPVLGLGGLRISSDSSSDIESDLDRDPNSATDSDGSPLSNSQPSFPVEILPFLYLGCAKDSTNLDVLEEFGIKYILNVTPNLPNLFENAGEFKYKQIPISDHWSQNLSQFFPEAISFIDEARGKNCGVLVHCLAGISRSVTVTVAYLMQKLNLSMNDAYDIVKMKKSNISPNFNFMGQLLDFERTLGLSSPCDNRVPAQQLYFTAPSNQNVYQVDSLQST

[8] = target: Glyceraldehyde-3-phosphate dehydrogenase (Homo sapiens, UniProt P04406)
[9] = target: T4, Tyrosine-protein phosphatase non-receptor type 7 (Homo sapiens, UniProt P35236); format: functional
T4 sequence (P35236 whole entry): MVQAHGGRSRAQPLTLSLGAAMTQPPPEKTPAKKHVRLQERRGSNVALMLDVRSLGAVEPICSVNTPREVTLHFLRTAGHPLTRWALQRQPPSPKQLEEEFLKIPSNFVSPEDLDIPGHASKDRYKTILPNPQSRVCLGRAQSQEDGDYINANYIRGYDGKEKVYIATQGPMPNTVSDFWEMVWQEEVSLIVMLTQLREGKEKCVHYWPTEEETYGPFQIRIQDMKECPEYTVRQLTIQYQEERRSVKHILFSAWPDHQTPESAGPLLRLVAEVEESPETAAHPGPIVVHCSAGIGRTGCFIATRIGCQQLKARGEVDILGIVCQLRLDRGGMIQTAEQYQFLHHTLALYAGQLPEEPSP

[10] = target: T3, Dual specificity protein phosphatase 6
[11] = target: Heat shock cognate 71 kDa protein (Homo sapiens, UniProt P11142); test: In Vitro Hsc70 Dose Response Fluorescence Polarization Assay. [Related pubchem assays: 1072 ]
cells = format: functional
HT-1080 = test: cytotoxicity in HT1080 fibrosarcoma cells, cell-based, fluorescence readout (AID 620); format: functional; details: Homo sapiens
[12] = target: Luciferin 4-monooxygenase (Photinus pyralis, UniProt P08659); test: Counter Screen for Luciferase-based Assay Positives. [Related pubchem assays: 620, 618, 411 ]
Wee1-like protein kinase = Wee1-like protein kinase (Homo sapiens, UniProt P30291); test: Dose Response Cell-based Assay for Inhibitors of Wee1 Degradation. [Related pubchem assays: 1410, 1321 ]; format: functional
[13] = target: FAD-linked sulfhydryl oxidase ALR (Homo sapiens, UniProt P55789); test: inhibitors of human ALR sulfhydryl oxidase, dose response, biochemical, H2O2 detection, luminescence, cherry-pick (AID 493248)
[14] = target: T5, Heat shock factor protein 1 (Mus musculus, UniProt P38532); test: HSF1 potentiators in luciferase reporter cells, confirmation, cell-based, NIH3T3, luminescence, dose retest (AID 435004); format: functional;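 further: stress induced by proteasome inhibitor MG132 added 30 min after compound; luciferase reporter driven by HSF1 response element in NIH3T3 cells; actives raise luminescence as potentiators of the MG132 stress response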
T5 sequence (P38532 whole entry): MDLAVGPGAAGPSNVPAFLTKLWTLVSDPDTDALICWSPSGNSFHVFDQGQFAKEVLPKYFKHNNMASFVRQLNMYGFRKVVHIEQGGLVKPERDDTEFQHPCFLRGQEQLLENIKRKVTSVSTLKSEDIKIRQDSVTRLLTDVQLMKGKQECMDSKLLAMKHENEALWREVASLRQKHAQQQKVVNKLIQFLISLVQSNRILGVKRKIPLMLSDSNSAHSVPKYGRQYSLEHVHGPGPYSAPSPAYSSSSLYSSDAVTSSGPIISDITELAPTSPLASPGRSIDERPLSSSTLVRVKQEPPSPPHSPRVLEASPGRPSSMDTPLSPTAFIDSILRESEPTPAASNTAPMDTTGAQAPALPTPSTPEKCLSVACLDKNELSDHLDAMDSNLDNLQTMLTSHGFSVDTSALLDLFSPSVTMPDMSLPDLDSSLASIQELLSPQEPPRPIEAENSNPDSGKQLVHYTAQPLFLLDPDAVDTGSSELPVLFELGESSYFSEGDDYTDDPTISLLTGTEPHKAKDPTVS

[15] = target: G2/mitotic-specific cyclin-B1 (Homo sapiens, UniProt P14635); test: Counterscreen assay for inhibitors of Wee1 degradation: dose response cell-based assay to identify inhibitors of cyclin B degradation. [Related pubchem assays: 1410, 1321 ]; format: functional
[16] = target: Mothers against decapentaplegic homolog 3 (Homo sapiens, UniProt P84022); test: Smad3 binding inhibitors, lysate ELISA, dose response, cell lysate, secondary confirmation, chemiluminescent ELISA, HEK293 lysate (AID 1058); format: functional
Insulin-degrading enzyme = target: T6, Insulin-degrading enzyme (Homo sapiens, UniProt P14735); test: Dose Response: Fluorescence polarization-based cell-based high throughput dose response assay for inhibitors of insulin-degrading enzyme (IDE). [Related pubchem assays: 434962 (Primary screen (IDE inhibitors in singlicate)), 449730 (Counterscreen (Cytotoxicity in triplicate)), 435028 (Confirmation (IDE inhibitors in triplicate)), 434984 (Summary …; format: functional
T6 sequence (P14735 whole entry): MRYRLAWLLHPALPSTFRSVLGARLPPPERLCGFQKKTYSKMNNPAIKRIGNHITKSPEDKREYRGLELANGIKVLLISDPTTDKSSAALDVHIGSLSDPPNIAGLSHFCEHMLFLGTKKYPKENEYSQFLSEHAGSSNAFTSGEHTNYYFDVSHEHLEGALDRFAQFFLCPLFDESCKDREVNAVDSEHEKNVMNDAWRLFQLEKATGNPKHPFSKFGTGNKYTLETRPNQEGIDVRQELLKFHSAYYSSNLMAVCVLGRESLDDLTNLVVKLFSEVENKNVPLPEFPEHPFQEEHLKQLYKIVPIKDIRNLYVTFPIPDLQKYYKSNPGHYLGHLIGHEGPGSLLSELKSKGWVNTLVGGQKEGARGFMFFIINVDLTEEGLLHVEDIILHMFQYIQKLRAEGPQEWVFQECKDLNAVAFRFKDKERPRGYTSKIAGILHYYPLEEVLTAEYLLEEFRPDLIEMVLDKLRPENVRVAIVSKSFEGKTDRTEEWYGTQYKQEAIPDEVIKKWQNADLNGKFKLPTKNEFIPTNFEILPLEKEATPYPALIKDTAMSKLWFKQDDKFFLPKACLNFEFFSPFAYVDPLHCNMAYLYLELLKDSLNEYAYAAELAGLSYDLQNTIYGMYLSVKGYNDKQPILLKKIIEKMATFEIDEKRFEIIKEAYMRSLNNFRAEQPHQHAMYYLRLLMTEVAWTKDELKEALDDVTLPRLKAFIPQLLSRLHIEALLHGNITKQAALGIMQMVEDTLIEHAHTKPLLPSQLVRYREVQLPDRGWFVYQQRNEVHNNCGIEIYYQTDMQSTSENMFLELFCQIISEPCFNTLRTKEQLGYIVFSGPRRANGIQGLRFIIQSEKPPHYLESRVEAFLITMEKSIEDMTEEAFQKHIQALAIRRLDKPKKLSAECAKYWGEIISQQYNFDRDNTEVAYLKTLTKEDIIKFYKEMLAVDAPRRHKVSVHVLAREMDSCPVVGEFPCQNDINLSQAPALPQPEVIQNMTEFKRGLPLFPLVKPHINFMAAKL

Beta-galactosidase = Beta-galactosidase (Escherichia coli, UniProt Q8VNN2); format: functional
BJ [17] = test: cells; format: functional, cell-based; details: Homo sapiens
[18] = target: T7, Kappa-type opioid receptor (Homo sapiens, UniProt P41145); format: functional
[19] = cytotoxicity toward DRD oncogenic fibroblasts, dose response, cell-based, non-viral oncogenic, luminescence (AID 1934); format: functional; details: Homo sapiens
[20] = Counterscreen for IDE inhibitors: Luminescence-based cell-based high throughput dose response assay to identify compounds that are cytotoxic to HEK cells. [Related pubchem assays: 434962 (Primary screen (IDE inhibitors in singlicate)), 449730 (Counterscreen (Cytotoxicity in triplicate)), 435028 (Confirmation (IDE inhibitors in triplicate)) …; format: functional; details: HEK293
BJ [21] = test: cytotoxicity toward BJ-TERT-LT-ST fibroblasts, dose response, cell-based, RAS-independent, luminescence (AID 1935); format: functional; details: Homo sapiens;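 further: BJ fibroblasts immortalized with TERT plus LT and ST oncogenes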
[22] = target: T7, Kappa-type opioid receptor; format: functional; remark: listed apart in the source
BJ [23] = test: cytotoxicity toward BJ-TERT fibroblasts, dose response, cell-based, RAS-independent, luminescence (AID 1933); format: functional; details: Homo sapiens

T7 sequence (P41145 whole entry): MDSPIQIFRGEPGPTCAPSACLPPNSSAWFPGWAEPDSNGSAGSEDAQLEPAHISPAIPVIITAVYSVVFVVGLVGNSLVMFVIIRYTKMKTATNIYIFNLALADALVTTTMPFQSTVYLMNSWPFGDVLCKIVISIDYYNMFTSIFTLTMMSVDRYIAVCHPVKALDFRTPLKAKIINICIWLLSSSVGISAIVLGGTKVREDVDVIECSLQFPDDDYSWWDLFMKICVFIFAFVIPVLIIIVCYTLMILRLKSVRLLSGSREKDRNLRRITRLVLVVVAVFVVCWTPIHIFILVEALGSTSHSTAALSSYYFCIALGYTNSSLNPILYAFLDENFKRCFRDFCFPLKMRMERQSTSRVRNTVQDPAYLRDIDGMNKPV
Cytochrome P450 2C9, sequence (P11712 whole entry, the tested form may be a part): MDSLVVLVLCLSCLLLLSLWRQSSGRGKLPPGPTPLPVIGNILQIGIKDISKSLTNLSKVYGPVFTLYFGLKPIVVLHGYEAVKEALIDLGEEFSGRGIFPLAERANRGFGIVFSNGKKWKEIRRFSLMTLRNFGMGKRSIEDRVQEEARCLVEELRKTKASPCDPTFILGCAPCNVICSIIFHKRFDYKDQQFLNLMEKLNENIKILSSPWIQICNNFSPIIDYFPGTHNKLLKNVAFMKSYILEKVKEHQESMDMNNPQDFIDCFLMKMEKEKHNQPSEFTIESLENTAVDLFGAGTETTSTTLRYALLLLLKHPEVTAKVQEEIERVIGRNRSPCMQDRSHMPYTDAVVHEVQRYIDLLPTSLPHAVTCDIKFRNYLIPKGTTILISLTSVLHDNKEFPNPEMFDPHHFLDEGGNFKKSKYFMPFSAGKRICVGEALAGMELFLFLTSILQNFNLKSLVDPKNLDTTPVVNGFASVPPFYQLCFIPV
Heat shock 70 kDa protein 1A, sequence (P0DMV8 whole entry): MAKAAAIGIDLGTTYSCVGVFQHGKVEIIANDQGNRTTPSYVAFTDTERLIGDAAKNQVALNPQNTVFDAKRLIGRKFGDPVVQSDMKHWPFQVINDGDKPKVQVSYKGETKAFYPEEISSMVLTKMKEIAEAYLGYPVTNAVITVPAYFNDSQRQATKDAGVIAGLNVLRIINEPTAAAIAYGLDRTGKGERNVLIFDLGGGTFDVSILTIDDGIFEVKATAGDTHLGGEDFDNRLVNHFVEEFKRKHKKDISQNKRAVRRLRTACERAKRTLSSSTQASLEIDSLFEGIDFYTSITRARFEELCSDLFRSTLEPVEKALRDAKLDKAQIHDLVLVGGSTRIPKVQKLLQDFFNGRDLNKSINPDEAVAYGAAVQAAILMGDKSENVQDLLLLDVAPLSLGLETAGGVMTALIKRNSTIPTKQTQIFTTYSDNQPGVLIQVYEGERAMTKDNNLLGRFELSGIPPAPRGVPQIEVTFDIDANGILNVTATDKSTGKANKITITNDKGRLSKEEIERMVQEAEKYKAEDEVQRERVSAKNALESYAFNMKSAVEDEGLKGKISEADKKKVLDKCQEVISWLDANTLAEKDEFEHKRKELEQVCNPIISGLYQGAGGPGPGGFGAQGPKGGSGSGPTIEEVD
Mothers against decapentaplegic homolog 3, sequence (P84022 whole entry): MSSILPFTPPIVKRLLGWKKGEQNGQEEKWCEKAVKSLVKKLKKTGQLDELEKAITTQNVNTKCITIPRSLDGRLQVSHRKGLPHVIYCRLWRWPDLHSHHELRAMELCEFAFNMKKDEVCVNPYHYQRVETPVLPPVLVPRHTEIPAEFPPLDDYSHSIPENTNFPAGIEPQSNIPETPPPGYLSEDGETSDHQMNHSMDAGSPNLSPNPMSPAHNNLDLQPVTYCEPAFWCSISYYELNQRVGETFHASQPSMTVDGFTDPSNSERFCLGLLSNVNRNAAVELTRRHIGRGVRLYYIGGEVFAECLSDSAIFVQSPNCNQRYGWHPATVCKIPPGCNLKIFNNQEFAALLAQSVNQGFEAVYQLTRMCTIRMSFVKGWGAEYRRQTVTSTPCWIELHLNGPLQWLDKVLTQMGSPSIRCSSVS
Luciferin 4-monooxygenase, sequence (P08659 whole entry): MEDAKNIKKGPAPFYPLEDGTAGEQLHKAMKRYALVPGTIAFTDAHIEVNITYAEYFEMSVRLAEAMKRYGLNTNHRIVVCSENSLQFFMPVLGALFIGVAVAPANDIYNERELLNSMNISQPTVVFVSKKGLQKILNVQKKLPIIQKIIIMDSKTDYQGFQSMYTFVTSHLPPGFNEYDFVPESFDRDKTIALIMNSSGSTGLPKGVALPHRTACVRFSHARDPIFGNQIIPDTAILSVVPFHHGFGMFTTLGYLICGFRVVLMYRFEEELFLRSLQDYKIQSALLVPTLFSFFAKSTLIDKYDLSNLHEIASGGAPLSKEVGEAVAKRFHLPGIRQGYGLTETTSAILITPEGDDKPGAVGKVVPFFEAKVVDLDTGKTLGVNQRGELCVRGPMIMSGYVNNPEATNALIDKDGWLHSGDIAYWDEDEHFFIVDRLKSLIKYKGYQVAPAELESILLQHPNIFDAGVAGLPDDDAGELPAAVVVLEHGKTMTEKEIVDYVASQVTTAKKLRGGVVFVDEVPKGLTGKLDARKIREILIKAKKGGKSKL
Dual specificity protein phosphatase 3, sequence (P51452 whole entry): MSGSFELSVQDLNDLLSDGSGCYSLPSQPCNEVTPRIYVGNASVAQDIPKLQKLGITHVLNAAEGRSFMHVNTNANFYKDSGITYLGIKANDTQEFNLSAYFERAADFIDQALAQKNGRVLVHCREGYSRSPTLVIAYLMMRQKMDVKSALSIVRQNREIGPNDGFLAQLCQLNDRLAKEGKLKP
Melanin-concentrating hormone receptor 1, sequence (Q99705 whole entry): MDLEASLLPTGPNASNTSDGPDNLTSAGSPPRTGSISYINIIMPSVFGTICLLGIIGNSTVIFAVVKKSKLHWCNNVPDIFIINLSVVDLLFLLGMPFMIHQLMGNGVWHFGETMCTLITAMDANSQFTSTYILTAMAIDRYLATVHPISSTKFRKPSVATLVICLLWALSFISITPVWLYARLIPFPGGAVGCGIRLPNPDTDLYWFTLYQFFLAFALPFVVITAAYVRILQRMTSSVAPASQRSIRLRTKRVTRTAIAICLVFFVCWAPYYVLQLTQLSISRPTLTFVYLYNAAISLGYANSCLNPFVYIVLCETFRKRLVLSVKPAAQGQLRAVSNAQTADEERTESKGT
G2/mitotic-specific cyclin-B1, sequence (P14635 whole entry): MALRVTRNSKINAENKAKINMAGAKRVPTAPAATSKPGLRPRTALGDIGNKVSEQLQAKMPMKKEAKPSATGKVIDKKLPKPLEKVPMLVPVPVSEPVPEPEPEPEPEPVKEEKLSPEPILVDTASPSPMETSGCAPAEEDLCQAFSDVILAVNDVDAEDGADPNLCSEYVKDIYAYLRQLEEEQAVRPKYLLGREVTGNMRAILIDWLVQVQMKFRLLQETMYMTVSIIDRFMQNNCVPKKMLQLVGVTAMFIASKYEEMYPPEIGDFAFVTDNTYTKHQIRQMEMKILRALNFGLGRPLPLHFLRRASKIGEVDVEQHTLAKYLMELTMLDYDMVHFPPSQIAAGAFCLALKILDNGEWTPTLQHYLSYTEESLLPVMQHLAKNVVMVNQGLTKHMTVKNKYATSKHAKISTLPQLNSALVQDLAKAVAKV
FAD-linked sulfhydryl oxidase ALR, sequence (P55789 whole entry): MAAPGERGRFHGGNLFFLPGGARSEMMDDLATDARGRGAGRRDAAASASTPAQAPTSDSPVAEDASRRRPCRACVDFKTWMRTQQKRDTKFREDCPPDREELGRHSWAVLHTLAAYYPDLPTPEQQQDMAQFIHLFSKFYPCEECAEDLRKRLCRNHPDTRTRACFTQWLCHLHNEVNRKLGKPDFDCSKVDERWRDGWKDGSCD
Wee1-like protein kinase, sequence (P30291 whole entry): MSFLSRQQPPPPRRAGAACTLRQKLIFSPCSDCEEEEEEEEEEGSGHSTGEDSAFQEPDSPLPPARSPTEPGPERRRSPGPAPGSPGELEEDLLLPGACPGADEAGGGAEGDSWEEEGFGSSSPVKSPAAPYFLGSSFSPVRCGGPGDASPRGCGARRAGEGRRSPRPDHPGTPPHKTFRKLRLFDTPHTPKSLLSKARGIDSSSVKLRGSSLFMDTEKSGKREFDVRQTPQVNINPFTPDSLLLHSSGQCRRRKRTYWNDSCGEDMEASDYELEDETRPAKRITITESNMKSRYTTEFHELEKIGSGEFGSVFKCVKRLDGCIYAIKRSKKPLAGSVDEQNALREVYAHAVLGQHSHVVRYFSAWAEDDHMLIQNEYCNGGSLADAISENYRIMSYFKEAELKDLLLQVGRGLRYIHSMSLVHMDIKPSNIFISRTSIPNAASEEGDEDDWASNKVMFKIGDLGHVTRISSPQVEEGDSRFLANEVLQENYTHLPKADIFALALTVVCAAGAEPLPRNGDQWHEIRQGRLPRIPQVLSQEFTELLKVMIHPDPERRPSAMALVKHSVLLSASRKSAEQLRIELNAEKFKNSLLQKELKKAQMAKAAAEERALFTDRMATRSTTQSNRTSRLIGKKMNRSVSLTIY
Heat shock cognate 71 kDa protein, sequence (P11142 whole entry): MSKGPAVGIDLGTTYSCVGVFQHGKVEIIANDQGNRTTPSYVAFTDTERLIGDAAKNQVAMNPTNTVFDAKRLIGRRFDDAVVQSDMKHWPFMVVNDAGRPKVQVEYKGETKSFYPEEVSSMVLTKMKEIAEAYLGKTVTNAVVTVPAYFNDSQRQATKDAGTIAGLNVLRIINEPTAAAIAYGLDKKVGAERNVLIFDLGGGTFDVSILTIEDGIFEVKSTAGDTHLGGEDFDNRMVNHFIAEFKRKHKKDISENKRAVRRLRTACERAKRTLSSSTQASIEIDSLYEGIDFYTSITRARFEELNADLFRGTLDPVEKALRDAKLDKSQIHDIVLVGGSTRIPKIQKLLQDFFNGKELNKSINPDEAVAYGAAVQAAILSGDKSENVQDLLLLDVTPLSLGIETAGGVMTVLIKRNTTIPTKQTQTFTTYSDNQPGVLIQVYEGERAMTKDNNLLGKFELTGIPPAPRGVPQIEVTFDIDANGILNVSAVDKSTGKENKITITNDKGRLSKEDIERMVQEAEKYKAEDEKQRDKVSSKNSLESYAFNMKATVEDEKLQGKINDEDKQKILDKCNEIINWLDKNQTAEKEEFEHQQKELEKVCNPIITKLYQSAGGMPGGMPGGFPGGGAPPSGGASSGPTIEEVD

COc1ccc(Oc2c(Cl)cnn(-c3cccc(C)c3C)c2=O)cc1
IC50 [1]: 12.5 µM (inactive)

Cn1c(=O)c2c(nc(S)n2Cc2ccccc2Cl)n(C)c1=O
Ki [2]: 25.4 µM (inactive)

CCOC(=O)OCC1OC(C#Cc2ccccc2)C=CC1OC(=O)OCC (centres undefined)
AC50 (Cytochrome P450 2C9): 0.0794 µM (inconclusive)

Cc1ccc(-c2nc(SCC(=O)Nc3ccccc3OC(F)F)c3c(C)c(C(=O)O)sc3n2)cc1
IC50 [3]: 18.8 µM (active)

OC[C@H]1O[C@@H](n2cnc3c(Nc4ccccc4)ncnc32)[C@H](O)[C@@H]1O [N6-PHENYLADENOSINE]
IC50 [4]: 4.73 µM (active) | IC50 [5]: 7.83 µM (active)

Cc1cc(C)c2c(c1)C1C=CCC1C(C(=O)O)N2 (centres undefined)
IC50 [6]: 24.7 µM (active) | IC50 [7]: > 100 µM (inactive) | IC50 [8]: > 100 µM (not active) | IC50 [9]: 70.2 µM (active) | IC50 [10]: > 100 µM (inactive) | IC50 [11]: > 100 µM (not active)

Cc1ccc(C(=O)COC(=O)c2cccs2)cc1
IC50 (cells): 24.3 µM (active) | EC50 (HT-1080): > 50 µM (not active) | EC50 [12]: 0.53 µM (active)

Cc1ccc2[nH]c(NCc3ccccc3)nc2c1
EC50 (Wee1-like protein kinase): > 49.7 µM (not active) | AC50 [13]: 6.87 µM (active) | EC50 [14]: > 260 µM (inactive) | EC50 [15]: > 49.7 µM (not active)

COc1cc(C(c2cc3c(cc2O)OCO3)N2CCCC2)cc(OC)c1OC (centres undefined)
IC50 [16]: > 40 µM (not active)

CCN1C(=O)/C(=C/C=C2/Sc3ccccc3N2CCO)SC1=S
IC50 (Insulin-degrading enzyme): > 56 µM (not active) | EC50 (Beta-galactosidase): 16.7 µM (active) | EC50 (BJ [17]): 30.4 µM (active) | IC50 [18]: 13.2 µM (active) | EC50 [19]: 50.2 µM (active) | IC50 [20]: 12.1 µM (not active) | EC50 (BJ [21]): > 150 µM (not active) | IC50 [22]: 27.6 µM | EC50 (BJ [23]): 28.7 µM (active)
